Tests used:
Type in all cases: biochemical
citrated human plasma [1] = assay: Prothrombin time (PT) analysis; conditions: 300 μL of 150 μg/mL sample in 2.7 mL citrated human plasma
Description: Samples were prepared by mixing 300 μL of the heparin standard or glycopolymer (150 μg/mL) in 0.9% saline with 2.7 mL citrated human plasma. The tube was inverted 3 times to mix the sample thoroughly. Samples were analyzed by the UCLA Clinical & Translational Research Laboratory using a Sysmex® CA-1500 Coagulation Analyzer (Siemens AG, Erlangen, Germany). Clotting time in the absence of an anticoagulant was determined using 0.9% saline solution water (300 μL). Each clotting assay was performed in triplicate.

citrated human plasma [2] = assay: Activated partial thromboplastin time (APTT) analysis
Description: Plasma/anticoagulant samples were prepared by mixing 300 μL of the heparin standard or glycopolymer (150 μg/mL) in 0.9% saline and 2.7 mL of citrated human plasma. The tube was inverted 3 times to mix the sample thoroughly. Samples were analyzed by the UCLA Clinical & Translational Research Laboratory using a Sysmex® CA-1500 Coagulation Analyzer (Siemens AG, Erlangen, Germany). Clotting time in the absence of an anticoagulant was determined using 0.9% saline solution water (300 μL). Each clotting assay was performed in triplicate.

Factor Xa (FXa) = assay: Chromogenic anti-FXa assay in the presence of antithrombin III; conditions: with ATIII
Description: The BIOPHEN Heparin Anti-Xa (2 stages) USP/EP kit (Aniara) was used to determine factor Xa activity. This chromogenic anti-Xa method for measuring homogeneous heparin in purified systems is in compliance with Pharmacopoeias (USP, EP) and FDA guidelines. All reagents were prepared according to manufacturer's instructions and incubated at 37° C. for 15 min. Varying concentrations of heparin (Neoparin) or glycopolymers 1-4 (40 μL) and antithrombin (40 μL) were added to a microcentrifuge tube, mixed, and incubated at 37° C. for 2 min. Factor Xa (40 μL) was added to the solution, incubated at 37° C. for exactly 2 min, and then the factor Xa chromogenic substrate (40 μL) was added. After 2 min, the reaction was quenched with citric acid (20 g/L, 240 μL), and the absorbance was measured at 405 nm. The sample blank was obtained by mixing the reagents in reverse order, and the resulting value was deducted from the absorbance values measured in the assay.
All reagents were prepared according to the manufacturer's instructions and incubated at 37° C. for 15 min. […] Absorbance at 405 nm was measured on a Uvikon XL spectrophotometer. […] The sample blank value was deducted from the absorbance measured for the corresponding assay.

`CO[C@H]1O[C@H](COS(=O)(=O)O)[C@@H](O[C@@H]2O[C@@H](C(=O)O)[C@@H](O[C@H]3O[C@H](COS(=O)(=O)O)[C@@H](O[C@@H]4O[C@H](C(=O)O)[C@@H](O[C@H]5O[C@H](COS(=O)(=O)O)[C@@H](O)[C@H](O)[C@H]5NS(=O)(=O)O)[C@H](O)[C@H]4O)[C@H](OS(=O)(=O)O)[C@H]3NS(=O)(=O)O)[C@H](O)[C@H]2OS(=O)(=O)O)[C@H](O)[C@H]1NS(=O)(=O)O` [Arixtra] was tested, and the “PT” value (citrated human plasma [1]) was 15.1 ± 0.3 s, the “APTT” value (citrated human plasma [2]; 300 μL of 150 μg/mL sample in 2.7 mL citrated human plasma) was 78.3 ± 0.4 s and the “effect on APTT (in words)” value (citrated human plasma [2]; compared to saline control) was “increased only the APTT”. For the same compound, the IC50 (Factor Xa (FXa)) was 11 ± 0.1 nM.

Source: patent publication US9770461B2, “Tailored glycopolymers as anticoagulant heparin mimetics” (California Institute of Technology, priority 2013, dated 2017)
